Reference: patent US20070202047A1, “Polyamine-substituted ligands for use as contrast agents” (priority 2006, published 2007)
“And” between values parts separate entries of the source, which are not always exact repeats. Equal values may be shown once. One block for each compound: values may come before it.

Key:
[1] = tested on: MH3924A Morris hepatoma cells; test: Intracellular uptake of gadolinium complexes (ICP-MS); assay type: cell-based, rat; conditions: MH3924A cells; for intracellular uptake of gadolinium complex: 24-h incubation
Protocol: Cell culture. B16 melanoma cells (mouse) and MH3924A Morris hepatoma cells (rat) were obtained from the German Cancer Research Center (DKFZ) tumor bank and grown at 37° C. as stock cultures in RPMI 1640 supplemented with 10% fetal calf serum and 1% glutamine as standard medium under a 5% CO2 atmosphere (all components: Pan Biotech GmbH, Aidenbach, Germany). For contrast agent uptake studies 10^6 cells were inoculated into 25 cm^2 culture flasks (BD Biosciences, Bedford, USA) and grown for 24 h in 10 mL of the standard culture medium. Cells were then incubated for an additional 24 h (1 h for temperature dependence studies) with fresh medium containing 0, 1, 2.5, 5 or 10 μM of the selected gadolinium complex (three replicate flasks for each incubation). Afterwards the medium was removed, cells were trypsinated, washed twice, resuspended in culture medium and counted (typical yields: 3.5-6 million cells). For comparison 2.5×10^5 human melanocytes (Promo Cell, Heidelberg, Germany) were incubated for 24 h with melanocyte growth medium (Promo Cell, Heidelberg, Germany) containing 0, 1, 2.5, 5 or 10 μM of the selected gadolinium complex (two replicate flasks for each incubation). The work up procedure was as described above typically yielding 2.5×10^5 cells. Cultured human hepatocytes (Cytonet GmbH, Weinheim, Germany) embedded in a collagen matrix in a 12 well microtiter plate, with 6×10^5 viable cells per well were incubated for 24 h in hepatocyte growth medium (Cytonet GmbH, Weinheim, Germany) containing the same concentration series of selected gadolinium complexes. Afterwards the medium was removed, cells were separated using collagenase (Roche Diagnostics, Mannheim, Germany). After digestion the cells were washed twice with PBS, resuspended in culture medium and counted (typical yields: 6×10^5 cells per tube). The intracellular gadolinium content was determined by ICP-MS as described below.
ICP-MS. Samples containing the above mentioned number of harvested cells were digested with 50% concentrated HNO3 (Superselect; Merck, Darmstadt, Germany) under microwave heating with a Mars 5 apparatus (CEM GmbH, Kamp-Lintfort, Germany). To each sample 100 μL of an aqueous solution of rhodium chloride (1 μg/mL) were added so that Rh-103 could be used as an internal quantification standard. Gd-160 measurements were performed with the ICP-MS instrument mentioned above. The gadolinium concentrations were determined using standard curves created prior to cell analyses. For each uptake incubation condition triplicate cell samples were analyzed, and Gd content for each sample was recorded as the mean of two MS determinations.
Intracellular Uptake of Gadolinium Complexes. B16 melanoma and MH3924A hepatoma cells as well as human melanocytes and hepatocytes were incubated for 24 h in the presence of the gadolinium complexes shown in FIG. 1, using concentrations in the range of 1-10 μM. Incubations with the unsubstituted [Gd(DTPA)(H2O)]^2−complex (Magnevist®) served as controls. Following cell harvest and hydrolysis, inductively coupled plasma mass spectrometry (ICP-MS) with direct detection of gadolinium was used to quantitate complex uptake (triplicate cultures for each incubation).
Cell Uptake Studies. A493 (human kidney), B16 melanoma cells (mouse), HeLa (human cervix), MCF-7 (human breats), MH3924A (Morris hepatoma) cells (rat) and 3T3 NIH (mouse fibroblasts) were obtained from the DKFZ tumor cell collection. 3×10^6 cells of each cell type were grown for 24 hours in culture flasks. Afterwards they were incubated for 1 hour in 10 mL culture media containing 0, 10, 50 and 100 μM of Gd-2.2. Gd-3.2 or Gd-4.2. Afterwards the medium was removed, the cells were trypsinated, washed twice, resuspended in culture medium and counted. The gadolinium uptake was determined in triplicate. […] cells were incubated with 0, 1, 2.5, 5 and 10 μM of the Gd-1.2. and Gd-5.2. for 24 h. […]

[2] = molecular target: T1, human serum albumin (Homo sapiens, UniProt P02768); test: Serum albumin binding (ultrafiltration, ICP-MS); assay type: in vitro ADME; conditions: 20 μM complex, 40 g/L HSA, 37° C.; for binding of complex to human serum albumin: 30 or 90 min
T1 construct: purchased Behring, Bern, Switzerland
Protocol: Serum albumin binding. Solutions containing 20 μM Gd-3.1., Gd-5.1. or Gd-6.1. and 40 g/L human serum albumin (Behring, Bern, Switzerland) were incubated at 37° C. for 30 or 90 min. The solutions were subjected to ultrafiltration (filter cutoff 20 kD; Sartorius, Göttingen, Germany), and the amount of unbound complex was determined in the ultrafiltrate with ICP-MS (n=2).
HSA Binding: 20 μM solutions of the complexes were incubated at 37° C. for 30 and 90 minutes in a solution of 40 g HSA/L (Behring, Bern; Switzerland). The amount of unbound complex was determined in ultrafiltrates with ICP-MS.

T1 sequence (P02768 25-609): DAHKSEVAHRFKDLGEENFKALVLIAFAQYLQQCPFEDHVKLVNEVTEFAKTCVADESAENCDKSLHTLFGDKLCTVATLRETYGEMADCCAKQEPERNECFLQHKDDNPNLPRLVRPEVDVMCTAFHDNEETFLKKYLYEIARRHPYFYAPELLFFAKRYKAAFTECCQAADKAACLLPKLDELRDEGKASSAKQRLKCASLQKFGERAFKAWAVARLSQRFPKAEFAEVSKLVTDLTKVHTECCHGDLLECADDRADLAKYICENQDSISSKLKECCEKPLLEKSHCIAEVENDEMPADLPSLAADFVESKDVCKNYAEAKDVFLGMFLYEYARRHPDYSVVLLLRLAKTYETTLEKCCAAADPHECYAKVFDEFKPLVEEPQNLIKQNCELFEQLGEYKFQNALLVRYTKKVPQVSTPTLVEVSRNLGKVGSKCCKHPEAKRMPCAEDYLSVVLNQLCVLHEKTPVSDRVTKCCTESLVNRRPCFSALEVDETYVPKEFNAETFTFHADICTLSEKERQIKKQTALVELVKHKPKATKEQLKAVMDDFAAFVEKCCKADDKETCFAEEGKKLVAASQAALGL

complex found to be free (unbound) ([2]; ultrafiltrate): 93±6%
SMILES: CCN(CC)CCNC(=O)CN(CCN(CCN(CC(=O)[O-])CC(=O)N(CCN)CCN)CC(=O)[O-])CC(=O)[O-].[Gd+3] [Gd-3.1]
intracellular uptake of gadolinium complex ([1]; 10 μM): 0.175±0.0013 fmol/cell and 0.175 fmol/cell | binding of complex to human serum albumin [2]: no significant binding of complex to protein

SMILES: NCCN(CCN)C(=O)CN(CCN(CCN(CC(=O)[O-])CC(=O)N(CCN)CCN)CC(=O)[O-])CC(=O)[O-].[Gd+3] [Gd-5.1]
intracellular uptake of gadolinium complex ([1]; 10 μM): 0.053±0.005 fmol/cell | observed factor of decrease in uptake at 4° C. vs. 37° C. ([1]; 1 h (FIG. 3A)): ~6.5 | uptake over 1 h at 4° C. ([1]; 1 h, 4° C., 10 μM): 0.00064±0.00004 fmol/cell | uptake over 1 h at 37° C. ([1]; 1 h, 37° C., 10 μM): 0.008±0.00041 fmol/cell | binding of complex to human serum albumin [2]: no significant binding of complex to protein

SMILES: NCCCCN(CCCN)C(=O)CN(CCN(CCN(CC(=O)[O-])CC(=O)N(CCCN)CCCCN)CC(=O)[O-])CC(=O)[O-].[Gd+3] [Gd-6.1]
intracellular uptake of gadolinium complex ([1]; 10 μM): 0.108 fmol/cell | binding of complex to human serum albumin [2]: no significant binding of complex to protein
